# Values joined by “and” are separate entries in the source; they are usually repeats but may differ in a detail not shown here. Equal entries are not always repeated. Inconclusive results and toxic doses are left out.
# System: L1210 leukemia ip in BDF1 mice, survival T/C
# Assay: NCI In Vivo Anticancer Drug Screen. Data for tumor model L1210 Leukemia (intraperitoneal) in B6D2F1 (BDF1) mice
# Settings: endpoint: mean survival time, higher = longer survival
# In short: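 Each compound was tested against a transplantable tumor grown in mice. The endpoint was survival, with treated animals benchmarked against vehicle controls as a simple ratio.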
# [1] = dose: 100.0 mg/kg/injection, schedule: Q01DX009 (ip), vehicle: saline
# [2] = dose: 200.0 mg/kg/injection, schedule: Q01DX009 (ip), vehicle: saline
# [3] = dose: 400.0 mg/kg/injection, schedule: Q01DX009 (ip), vehicle: saline
# [4] = dose: 100.0 mg/kg/injection, schedule: Q01DX009 (ip), vehicle: Klucel (hydroxypropylcellulose) (HPC)
# [5] = dose: 200.0 mg/kg/injection, schedule: Q01DX009 (ip), vehicle: Klucel (hydroxypropylcellulose) (HPC)
# [6] = dose: 400.0 mg/kg/injection, schedule: Q01DX009 (ip), vehicle: Klucel (hydroxypropylcellulose) (HPC)
# [7] = dose: 25.0 mg/kg/injection, schedule: Q01DX009 (ip), vehicle: Klucel (hydroxypropylcellulose) (HPC)
# [8] = dose: 100.0 mg/kg/injection, schedule: Q04DX003 (ip), vehicle: Klucel (hydroxypropylcellulose) (HPC)
# [9] = dose: 100.0 mg/kg/injection, schedule: Q01DX001 (ip), vehicle: saline
# [10] = dose: 200.0 mg/kg/injection, schedule: Q01DX001 (ip), vehicle: saline
# [11] = dose: 400.0 mg/kg/injection, schedule: Q01DX001 (ip), vehicle: saline
# [12] = dose: 100.0 mg/kg/injection, schedule: Q04DX002 (ip), vehicle: saline
# [13] = dose: 200.0 mg/kg/injection, schedule: Q04DX002 (ip), vehicle: saline
# [14] = dose: 400.0 mg/kg/injection, schedule: Q04DX002 (ip), vehicle: saline
# [15] = dose: 200.0 mg/kg/injection, schedule: Q04DX003 (ip), vehicle: Klucel (hydroxypropylcellulose) (HPC)
compound,measurement,setting,value
O=S(=O)(/C=C/c1ccc(-c2ccccc2)cc1)c1ccccc1,T/C,"dose: 100.0 mg/kg/injection, schedule: Q01DX001 (ip), vehicle: acetone",101 % of control
same,T/C,[1],94 % of control
same,T/C,"dose: 100.0 mg/kg/injection, schedule: Q04DX003 (ip), vehicle: acetone",108 % of control
same,T/C,"dose: 200.0 mg/kg/injection, schedule: Q01DX001 (ip), vehicle: acetone",89 % of control
same,T/C,[2],96 % of control
same,T/C,"dose: 200.0 mg/kg/injection, schedule: Q04DX003 (ip), vehicle: acetone",96 % of control
same,T/C,"dose: 400.0 mg/kg/injection, schedule: Q01DX001 (ip), vehicle: acetone",98 % of control
same,T/C,[3],96 % of control
same,T/C,"dose: 400.0 mg/kg/injection, schedule: Q04DX003 (ip), vehicle: acetone",96 % of control
CCOC(=O)c1ccc(NC(=O)Oc2cc(C)ccc2C)cc1,T/C,[4],93 % of control
same,T/C,[5],92 % of control
same,T/C,[6],90 % of control
O=C(Nc1ccc(F)c(Cl)c1)Nc1ccc(Cl)c(C(F)(F)F)c1,T/C,"dose: 100.0 mg/kg/injection, schedule: Q01DX009 (ip), vehicle: saline with Tween-80",88 % of control
same,T/C,"dose: 200.0 mg/kg/injection, schedule: Q01DX009 (ip), vehicle: saline with Tween-80",98 % of control
O=C(Nc1ccc(Cl)cc1)Oc1ccc(Cl)cc1Cl,T/C,"dose: 25.0 mg/kg/injection, schedule: Q01DX009 (ip), vehicle: DMSO",92 % of control
same,T/C,"dose: 25.0 mg/kg/injection, schedule: Q04DX002 (ip), vehicle: DMSO",94 % of control
same,T/C,"dose: 50.0 mg/kg/injection, schedule: Q01DX009 (ip), vehicle: DMSO",86 % of control
same,T/C,"dose: 50.0 mg/kg/injection, schedule: Q04DX002 (ip), vehicle: DMSO",87 % of control
same,T/C,"dose: 200.0 mg/kg/injection, schedule: Q04DX002 (ip), vehicle: DMSO",96 % of control
N#CCc1c(Cl)ccc(Cl)c1Cl,T/C,"dose: 12.0 mg/kg/injection, schedule: Q01DX009 (ip), vehicle: Klucel (hydroxypropylcellulose) (HPC)",97 % of control
same,T/C,[7],100 % of control
same,T/C,"dose: 25.0 mg/kg/injection, schedule: Q04DX003 (ip), vehicle: Klucel (hydroxypropylcellulose) (HPC)",97 % of control
same,T/C,"dose: 50.0 mg/kg/injection, schedule: Q01DX009 (ip), vehicle: Klucel (hydroxypropylcellulose) (HPC)",94 % of control
same,T/C,"dose: 50.0 mg/kg/injection, schedule: Q04DX003 (ip), vehicle: Klucel (hydroxypropylcellulose) (HPC)",98 % of control
same,T/C,[8],101 % of control and 87 % of control
C[Si]1(C)CCCSC1,T/C,[9],93 % of control
same,T/C,[10],96 % of control
same,T/C,[11],97 % of control
CCCC#CC(=O)OCC,T/C,[12],91 % of control
same,T/C,[13],97 % of control
same,T/C,[14],89 % of control
CN(C)CCC(=O)c1ccc(-c2ccccc2)cc1,T/C,[8],97 % of control
same,T/C,[15],97 % of control
Nc1ccc(C2=NCCO2)cc1,T/C,"dose: 100.0 mg/kg/injection, schedule: Q01DX001 (ip), vehicle: Klucel (hydroxypropylcellulose) (HPC)",92 % of control
same,T/C,"dose: 200.0 mg/kg/injection, schedule: Q01DX001 (ip), vehicle: Klucel (hydroxypropylcellulose) (HPC)",103 % of control
same,T/C,"dose: 400.0 mg/kg/injection, schedule: Q01DX001 (ip), vehicle: Klucel (hydroxypropylcellulose) (HPC)",96 % of control
CC(C)(C)C(N)=O,T/C,[4],92 % of control
same,T/C,"dose: 100.0 mg/kg/injection, schedule: Q04DX003 (ip), vehicle: other",94 % of control
same,T/C,[5],90 % of control
same,T/C,"dose: 200.0 mg/kg/injection, schedule: Q04DX003 (ip), vehicle: other",98 % of control
same,T/C,[6],95 % of control
same,T/C,"dose: 400.0 mg/kg/injection, schedule: Q04DX003 (ip), vehicle: other",98 % of control
CCC(=N)C1CCCCC1,T/C,"dose: 75.0 mg/kg/injection, schedule: Q01DX001 (ip), vehicle: carboxymethylcellulose (CMC)",102 % of control
same,T/C,"dose: 150.0 mg/kg/injection, schedule: Q01DX001 (ip), vehicle: carboxymethylcellulose (CMC)",93 % of control
CCOC(=O)C1CC(=O)c2c1ccc1ccccc21 (centres undefined),T/C,"dose: 75.0 mg/kg/injection, schedule: Q01DX001 (ip), vehicle: other",105 % of control
same,T/C,"dose: 150.0 mg/kg/injection, schedule: Q01DX001 (ip), vehicle: other",97 % of control
same,T/C,"dose: 300.0 mg/kg/injection, schedule: Q01DX001 (ip), vehicle: other",96 % of control
O=S(=O)(O)C(O)c1ccc(Cl)cc1Cl (centres undefined),T/C,"dose: 100.0 mg/kg/injection, schedule: Q04DX003 (ip), vehicle: saline",102 % of control
same,T/C,"dose: 200.0 mg/kg/injection, schedule: Q04DX003 (ip), vehicle: saline",102 % of control
same,T/C,"dose: 400.0 mg/kg/injection, schedule: Q04DX003 (ip), vehicle: saline",107 % of control
Cc1ccc(CNC(=O)Nc2cccc(Cl)c2)cc1C,T/C,[4],97 % of control
same,T/C,[5],92 % of control
same,T/C,[6],103 % of control
CN(C)c1ccc(/C=N/NC(=O)c2ccccc2NC(=O)c2ccc(Cl)cc2)c(Cl)c1,T/C,[4],95 % of control
same,T/C,[5],90 % of control
same,T/C,[6],90 % of control
N#Cc1sc2ccccc2c1CBr,T/C,"dose: 6.25 mg/kg/injection, schedule: Q01DX009 (ip), vehicle: Klucel (hydroxypropylcellulose) (HPC)",93 % of control
same,T/C,"dose: 12.5 mg/kg/injection, schedule: Q01DX009 (ip), vehicle: Klucel (hydroxypropylcellulose) (HPC)",94 % of control
same,T/C,[7],100 % of control
same,T/C,[8],100 % of control
same,T/C,[15],94 % of control
CC(C)(C)C(=O)Nc1ccc(S(=O)(=O)c2ccc(NC(=O)C(C)(C)C)cc2)cc1,T/C,"dose: 50.0 mg/kg/injection, schedule: Q01DX001 (ip), vehicle: saline",95 % of control
same,T/C,[9],93 % of control
same,T/C,[10],93 % of control
same,T/C,[11],98 % of control
Cc1c[n+]([O-])cc(C)c1N=Nc1ccc(N(C)C)cc1,T/C,"dose: 100.0 mg/kg/injection, schedule: Q04DX003 (ip), vehicle: saline with Tween-80",103 % of control
same,T/C,"dose: 200.0 mg/kg/injection, schedule: Q04DX003 (ip), vehicle: saline with Tween-80",96 % of control
O=C(O)CCOC(C[N+](=O)[O-])C(Cl)(Cl)Cl (centres undefined),T/C,[4],96 % of control
same,T/C,[5],97 % of control
same,T/C,[6],94 % of control
O=C(Nc1cccc(C(=O)Nc2ccc(C3=NCCN3)cc2)c1)c1ccc(C2=NCCN2)cc1,T/C,"dose: 15.0 mg/kg/injection, schedule: Q01DX Z (ip), vehicle: carboxymethylcellulose (CMC)",96 % of control
same,T/C,"dose: 15.0 mg/kg/injection, schedule: Q01DX Z (sc), vehicle: saline",120 % of control
same,T/C,"dose: 30.0 mg/kg/injection, schedule: Q01DX Z (ip), vehicle: carboxymethylcellulose (CMC)",120 % of control
same,T/C,"dose: 60.0 mg/kg/injection, schedule: Q01DX Z (sc), vehicle: saline",109 % of control
same,T/C,"dose: 62.5 mg/kg/injection, schedule: Q01DX010 (oral), vehicle: saline",104 % of control
same,T/C,"dose: 88.0 mg/kg/injection, schedule: Q01DX007 (oral), vehicle: carboxymethylcellulose (CMC)",101 % of control
same,T/C,"dose: 120.0 mg/kg/injection, schedule: Q01DX Z (ip), vehicle: carboxymethylcellulose (CMC)",185 % of control
same,T/C,"dose: 120.0 mg/kg/injection, schedule: Q01DX Z (sc), vehicle: saline",230 % of control
same,T/C,"dose: 125.0 mg/kg/injection, schedule: Q01DX010 (oral), vehicle: saline",104 % of control
same,T/C,"dose: 175.0 mg/kg/injection, schedule: Q01DX007 (oral), vehicle: carboxymethylcellulose (CMC)",97 % of control
same,T/C,"dose: 250.0 mg/kg/injection, schedule: Q01DX010 (oral), vehicle: saline",103 % of control
same,T/C,"dose: 350.0 mg/kg/injection, schedule: Q01DX007 (oral), vehicle: carboxymethylcellulose (CMC)",105 % of control
same,T/C,"dose: 500.0 mg/kg/injection, schedule: Q01DX010 (oral), vehicle: saline",106 % of control
same,T/C,"dose: 700.0 mg/kg/injection, schedule: Q01DX007 (oral), vehicle: carboxymethylcellulose (CMC)",105 % of control
OC(c1cccc2ccccc12)c1c2ccccc2cc2ccccc12 (centres undefined),T/C,"dose: 50.0 mg/kg/injection, schedule: Q01DX009 (ip), vehicle: saline",96 % of control
same,T/C,"dose: 100.0 mg/kg/injection, schedule: Q01DX005 (ip), vehicle: saline",98 % of control
same,T/C,[1],102 % of control and 104 % of control
same,T/C,[12],93 % of control
same,T/C,"dose: 200.0 mg/kg/injection, schedule: Q01DX005 (ip), vehicle: saline",103 % of control
same,T/C,[2],100 % of control
same,T/C,[13],97 % of control
same,T/C,"dose: 400.0 mg/kg/injection, schedule: Q01DX005 (ip), vehicle: saline",106 % of control
same,T/C,[3],108 % of control and 91 % of control
same,T/C,[14],97 % of control

# From PubChem BioAssay AID248 (DTP/NCI, 2004)
